Measurements from US11542263B2 (NeuroCycle Therapeutics, Inc., priority 2018, dated 2023).

Experiments:
[1] = Approximate solubility of TPA023B Phosphate in solvents (stepwise solvent addition); type: physicochemical; conditions: thermodynamic from solid
Method: The total amount of solvent was recorded to calculate the approximate solubility in these solvents.

Pharmacokinetics in rats = type: in vivo, Sprague-dawley rats; conditions: rat, mean
Method: To evaluate the pharmacokinetics (PK) of Phosphate Polymorphic Form A, suspensions or solutions were dosed by either oral gavage (0.5% methyl cellulose) or IV (60% PEG400/40% saline) in normal, healthy, male Sprague-dawley rats with serial blood collection focused on the first 48 hours of exposure. Rats were dosed with vehicle or test compounds at 1 mg/kg (IV) or 2 mg/kg (PO). Approximately 0.2 mL blood was collected at each time point. All blood samples were collected jugular vein puncture. All blood samples were transferred into plastic microcentrifuge tubes containing 5 μL of EDTA-K2 as anti-coagulant or pre-chilled commercial EDTA-K2 tubes and placed on wet ice until centrifugation. Harvested blood samples were centrifuged within 30 min of collection at 7,000 rpm for 10 minutes. The extracts were analyzed for compound concentration by LC/MS/MS. Data were analyzed with Phoenix WinNonlin 6.3 using the IV-Noncompartmental model 201 (IV bolus input) and PO-Noncompartmental model 200 (extravascular input) methods.

[2] = Accelerated stability testing (HPLC assay and purity); type: physicochemical; conditions: for Assay (%): assay criterion 95%-105%
Method: The stability of Phosphate Polymorphic Form and Free Base Polymorphic Form A were evaluated under accelerated conditions.
Appropriately 2 mg of compounds were accurately weighed into a glass vial, then added diluents (ACN/water, 50/50) and sonicated for 2 minutes to dilute the target concentration of 0.2 mg/mL. The solution was equilibrated to room temperature and then the purity of the compounds was determined by HPLC.

Canine pharmacokinetics = type: in vivo, Beagle dogs; conditions: male, beagle, plasma, dog, mean
Method: To evaluate the pharmacokinetics (PK) Phosphate Polymorphic Form A, suspensions or solutions were dosed by either oral gavage (0.5% methyl cellulose) or IV (60% PEG400/40% saline) in normal, healthy, male Beagle dogs with serial blood collection focused on the first 48 hours of exposure. Dogs were dosed with vehicle or test compounds at 1 mg/kg (IV) or 2 mg/kg (PO). Approximately 0.5 mL blood was collected at each time point. All blood samples were collected from a peripheral vein. Blood was collected into commercially available tubes (Jiangsu Kangjian medical supplies co., LTD) containing Potassium (K2) EDTA*2H2O and placed on wet ice until processed for plasma. Samples were centrifuged (3,000×g for 10 minutes at 2 to 8° C.) within one hour of collection. The extracts were analyzed for compound concentration by LC/MS/MS. Data were analyzed with Phoenix WinNonlin 6.3 using the IV-Noncompartmental model 201 (IV bolus input) and PO-Noncompartmental model 200 (extravascular input) methods.

[3] = Hygroscopicity by dynamic vapor sorption (DVS); type: physicochemical
Method: The hygroscopicity of Phosphate Polymorph Form A was measured by Dynamic vapor sorption (DVS). […] After DVS, XRPD confirmed that the crystalline form was retained (see FIG. 19).

[4] = Intrinsic dissolution rate in SGF; type: physicochemical; conditions: 37° C., 100 rpm, linear scope within 2 to 120 min
Method: About 100 mg of Free Base Polymorphic Form A or Phosphate Polymorphic Form A was weighed into the intrinsic dissolution apparatus and the sample compressed for 1 minute with a compression force of ˜4 MPa to form a compacted pellet within the stainless-steel die. All loose powder was removed from the surface of the die. The intrinsic dissolution shaft was connected with the stainless-steel die and tightened so only one surface of the pellet was exposed (surface area=0.496 cm^2). The shaft in the spindle was adjusted to ensure the exposed surface of the compacted tablet was ˜3.8 cm from the bottom of the vessel when lowered. The temperature of chamber water was set at 37° C.±0.5° C., the shaft rotation at 100 rpm and the sampling time points at 2, 5, 10, 15, 30, 45, 60, 120 min. SGF was used as dissolution medium (900 mL). At each time point, solution samples were filtered, and the supernatant was analyzed by HPLC-UV.

[5] = male, Sprague-Dawley, plasma, IV 1 mg/kg
[6] = male, Sprague-Dawley, plasma, PO 2 mg/kg

Work on `CC(C)(O)c1cnn2c(-c3ccc(F)c(-c4c(F)cccc4C#N)c3)cnc2n1.O=P(O)(O)O` [Phosphate Polymorphic Form A, 2′,6-difluoro-5′-[3-(1-hydroxy-1-methylethyl)-imidazo[1,2-b][1,2,4]triazin-7-yl]biphenyl-2-carbonitrile] yielded a solubility ([1]; aqueous with cosolvent or surfactant or cyclodextrin, Acetone/H2O (1/1, v/v), 50° C.) of 2000 to 10000 µg/mL, a solubility ([1]; aqueous with cosolvent or surfactant or cyclodextrin, Acetone/H2O (1/1, v/v), RT) of under 2000 µg/mL and a solubility ([1]; aqueous with cosolvent or surfactant or cyclodextrin, EtOH/H2O (1/1, v/v), 50° C.) of under 2000 µg/mL. It also gave a solubility ([1]; aqueous with cosolvent or surfactant or cyclodextrin, EtOH/H2O (1/1, v/v), RT) of under 2000 µg/mL, a solubility ([1]; organic solvent or mixture, 1,4-Dioxane, 50° C.) of 20000 to 25000 µg/mL and a solubility ([1]; organic solvent or mixture, 1,4-Dioxane, RT) of 20000 to 25000 µg/mL. It also gave a solubility ([1]; organic solvent or mixture, Acetone, 50° C.) of under 10000 µg/mL, a solubility ([1]; organic solvent or mixture, Acetone, RT) of 6000 to 10000 µg/mL and a solubility ([1]; organic solvent or mixture, Acetonitrile (ACN), 50° C.) of 2000 to 10000 µg/mL. It also gave a solubility ([1]; organic solvent or mixture, Acetonitrile (ACN), RT) of under 2000 µg/mL, a solubility ([1]; organic solvent or mixture, DCM, 50° C.) of 10000 to 50000 µg/mL and a solubility ([1]; organic solvent or mixture, DCM, RT) of 8000 to 10000 µg/mL. The solubility ([1]; organic solvent or mixture, DMF, RT) was over 100000 µg/mL, the solubility ([1]; organic solvent or mixture, DMSO, RT) was over 100000 µg/mL and the solubility ([1]; organic solvent or mixture, EtOAc, 50° C.) was under 2000 µg/mL. For the same molecule, the solubility ([1]; organic solvent or mixture, EtOAc, RT) was under 2000 µg/mL, the solubility ([1]; organic solvent or mixture, Ethanol, 50° C.) was 10000 to 50000 µg/mL and the solubility ([1]; organic solvent or mixture, Ethanol, RT) was under 8000 µg/mL. For the same molecule, the solubility ([1]; organic solvent or mixture, Heptane, 50° C.) was under 2000 µg/mL, the solubility ([1]; organic solvent or mixture, Heptane, RT) was under 2000 µg/mL and the solubility ([1]; organic solvent or mixture, Isopropanol, 50° C.) was 10000 to 50000 µg/mL. For the same molecule, the solubility ([1]; organic solvent or mixture, Isopropanol, RT) was under 8000 µg/mL, the solubility ([1]; organic solvent or mixture, MEK, 50° C.) was under 10000 µg/mL and the solubility ([1]; organic solvent or mixture, MEK, RT) was 2000 to 4000 µg/mL. The solubility ([1]; organic solvent or mixture, MTBE, 50° C.) was under 2000 µg/mL, the solubility ([1]; organic solvent or mixture, MTBE, RT) was under 2000 µg/mL and the solubility ([1]; organic solvent or mixture, Methanol, 50° C.) was 10000 to 50000 µg/mL. The solubility ([1]; organic solvent or mixture, Methanol, RT) was 8000 to 10000 µg/mL, the solubility ([1]; organic solvent or mixture, THF, 50° C.) was under 50000 µg/mL and the solubility ([1]; organic solvent or mixture, THF, RT) was 20000 to 50000 µg/mL. For the same molecule, the solubility ([1]; organic solvent or mixture, Toluene, 50° C.) was under 2000 µg/mL, the solubility ([1]; organic solvent or mixture, Toluene, RT) was under 2000 µg/mL and the solubility ([1]; water, H2O, 50° C.) was under 2000 µg/mL. The solubility ([1]; water, H2O, RT) was under 2000 µg/mL, the AUC(0-inf) (Pharmacokinetics in rats; [5]) was 12100 ng·h/mL and the AUC(0-t) (Pharmacokinetics in rats; [5]) was 11300 ng·h/mL. For the same molecule, the clearance (Pharmacokinetics in rats; [5]) was 1.41 mL/min/kg, the half-life (Pharmacokinetics in rats; [5]) was 12.4 h and the Vd (Pharmacokinetics in rats; male, Sprague-Dawley, plasma, IV 1 mg/kg, read-out: Vdss) was 1.49 L/kg. It also gave an AUC(0-inf) (Pharmacokinetics in rats; [6]) of 16000 ng·h/mL, an AUC(0-t) (Pharmacokinetics in rats; [6]) of 15000 ng·h/mL and a Cmax (Pharmacokinetics in rats; [6]) of 794 ng/mL. It also gave a Tmax (Pharmacokinetics in rats; [6]) of 7 h, a bioavailability (Pharmacokinetics in rats; [6]) of 66.1% and a half-life (Pharmacokinetics in rats; [6]) of 11.1 h. The AUCExtra (Pharmacokinetics in rats; PO 2 mg/kg) was 6.25%, the “Purity (%)” value ([2]; 40° C./75% RH (open), 1 week) was 99.02% and the “Assay (%)” value ([2]; 40° C./75% RH (open), 1 week) was 97.12%. The “Purity (%)” value ([2]; 80° C. (open), 1 week) was 98.94%, the “Assay (%)” value ([2]; 80° C. (open), 1 week) was 95.99% and the “Purity (%)” value ([2]; Initial) was 98.91%. The “Assay (%)” value ([2]; Initial) was 104.60%, the “Purity (%)” value ([2]; Light, ~50 h) was 97.55% and the “Assay (%)” value ([2]; Light, ~50 h) was 95.25%. The AUC(0-inf) (Canine pharmacokinetics; IV 1 mg/kg) was 9170 ng·h/mL, the AUC(0-t) (Canine pharmacokinetics; IV 1 mg/kg) was 7850 ng·h/mL and the clearance (Canine pharmacokinetics; IV 1 mg/kg) was 2.52 mL/min/kg. It also gave a half-life (Canine pharmacokinetics; IV 1 mg/kg) of 12.8 h, a Vd (Canine pharmacokinetics; IV 1 mg/kg, read-out: Vdss) of 1.93 L/kg and an AUC(0-inf) (Canine pharmacokinetics; PO 2 mg/kg) of 13900 ng·h/mL. For the same molecule, the AUC(0-t) (Canine pharmacokinetics; PO 2 mg/kg) was 11700 ng·h/mL, the Cmax (Canine pharmacokinetics; PO 2 mg/kg) was 649 ng/mL and the Tmax (Canine pharmacokinetics; PO 2 mg/kg) was 3.33 h. The bioavailability (Canine pharmacokinetics; PO 2 mg/kg) was 74.7%, the half-life (Canine pharmacokinetics; PO 2 mg/kg) was 12.2 h and the “reversible mass increase (hygroscopicity)” value [3] was “about 1.08%”. For the same molecule, the intrinsic dissolution rate [4] was 0.184 mg cm^−2 min^−1.
